Where “and” joins values, the source holds several entries; their conditions need not be identical. Identical values can stand only once.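 Interpolation was linear, between the two tested concentrations surrounding the appropriate level; five concentrations were tested over 48 hours in 96-well plates. At the GI50, growth is halved. TGI: concentration producing complete growth inhibition.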
Tests used:
Experiment in all cases: growth of human tumour cells (NCI), 48 h
A498 renal = system: A498 renal
HCC-2998 colon = system: HCC-2998 colon
KM12 colon = system: KM12 colon
NCI-H226 lung = system: NCI-H226 lung
NCI-H460 lung = system: NCI-H460 lung
NCI/ADR-RES ovarian = system: NCI/ADR-RES ovarian
OVCAR-5 ovarian = system: OVCAR-5 ovarian
PC-3 prostate = system: PC-3 prostate
SF-295 CNS = system: SF-295 CNS
SW-620 colon = system: SW-620 colon

In the case of `CCCS(=O)(=O)Nc1ccc(F)c(C(=O)c2c[nH]c3ncc(-c4ccc(Cl)cc4)cc23)c1F`, the GI50 (A498 renal) is reported as 1.72 µM and 2.59 µM, the TGI (A498 renal) is reported as 12.3 µM and > 8.97 µM and the GI50 (HCC-2998 colon) is reported as 5.59 µM and 10 µM. For the same compound, the TGI (HCC-2998 colon) was 17.9 µM and > 10 µM, the GI50 (KM12 colon) was 4.17 µM and 6.02 µM and the TGI (KM12 colon) was 16.8 µM and > 10 µM. For the same compound, the GI50 (NCI-H226 lung) was 9.23 µM and > 5.91 µM, the TGI (NCI-H226 lung) was 36.7 µM and > 10 µM and the GI50 (NCI-H460 lung) was 3.01 µM and 5 µM. For the same compound, the TGI (NCI-H460 lung) was 14 µM and > 10 µM, the GI50 (NCI/ADR-RES ovarian) was 6.75 µM and > 10 µM and the TGI (NCI/ADR-RES ovarian) was 31.6 µM and > 10 µM. The GI50 (OVCAR-5 ovarian) was 10.2 µM and > 9.13 µM, the TGI (OVCAR-5 ovarian) was 30 µM and > 10 µM and the GI50 (PC-3 prostate) was 2.98 µM and 6.01 µM. For the same compound, the TGI (PC-3 prostate) was 16.7 µM and > 10 µM, the GI50 (SF-295 CNS) was 2.62 µM and 3.17 µM and the TGI (SF-295 CNS) was 11.5 µM and > 10 µM. For the same compound, the GI50 (SW-620 colon) was 10 µM and > 8.98 µM and the TGI (SW-620 colon) was 27.3 µM and > 10 µM.

Source: PubChem BioAssay (NCI)
